From publication PMC11191095, “QSAR Reveals Decreased Lipophilicity of Polar Residues Determines the Selectivity of Antimicrobial Peptide Activity” (ACS Omega, 2024)

Key:
Assay in all cases: microbe, parasite or virus in culture
E. coli LEC001 = assay type: cell-based, Escherichia coli; conditions: E. coli LEC001 (R)
Outline: (§1)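 Peptides 128→2 μg/mL, 2-fold series; inoculum ~5 × 10^5 CFU/mL from overnight culture (OD600 0.01, mixed 1:1). MHB non-cation-adjusted for bacteria, RPMI 1640 + 2% glucose for fungi. 37 °C, 20 h, OD600. MIC50/MIC90 at 50%/90% inhibition; n ≥ 3.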

E. coli NCTC 12923 = assay type: cell-based, Escherichia coli; conditions: E. coli NCTC 12923 (S)
Outline: as §1

P. aeruginosa NCTC 13437 = assay type: cell-based, Pseudomonas aeruginosa; conditions: P. aeruginosa NCTC 13437 (R)
Outline: as §1

A. baumannii ATCC 17978 = assay type: cell-based, Acinetobacter baumannii; conditions: A. baumannii ATCC 17978 (S)
Outline: as §1

A. baumannii AYE = assay type: cell-based, Acinetobacter baumannii; conditions: A. baumannii AYE (R)
Outline: as §1

K. pneumoniae M6 = assay type: cell-based, Klebsiella pneumoniae; conditions: K. pneumoniae M6 (S)
Outline: as §1

K. pneumoniae NCTC 13368 = assay type: cell-based, Klebsiella pneumoniae; conditions: K. pneumoniae NCTC 13368 (R)
Outline: as §1

S. aureus (MRSA) 1199B = assay type: cell-based, Staphylococcus aureus; conditions: S. aureus (MRSA) 1199B (R); shown in µM
Outline: as §1

[1] = test system: S. aureus (MRSA) NCTC 13616; assay type: cell-based, Staphylococcus aureus; conditions: S. aureus (MRSA) NCTC 13616 (R)
Outline: as §1

S. aureus (MRSA) USA300 = assay type: cell-based, Staphylococcus aureus; conditions: S. aureus (MRSA) USA300 (R)
Outline: as §1

C. auris TDG 1912 = assay type: cell-based, Candida auris; conditions: C. auris TDG 1912; shown in µM
Outline: as §1

C. albicans NCPF 3281 = assay type: cell-based; conditions: C. albicans NCPF 3281
Outline: as §1

C. glabrata NCPF 8018 = assay type: cell-based; conditions: C. glabrata NCPF 8018
Outline: as §1

C. krusei NCPF 3876 = assay type: cell-based; conditions: C. krusei NCPF 3876
Outline: as §1

[2] = test system: C. parapsilosis NCPF 3209; assay type: cell-based; conditions: C. parapsilosis NCPF 3209
Outline: as §1

C. tropicalis NCPF 8760 = assay type: cell-based; conditions: C. tropicalis NCPF 8760
Outline: as §1

[3] = MHB, 37 °C, 20 h, OD600, min. three biological repeats
[4] = 50% growth inhibition, RPMI 1640 + 2% glucose, 37 °C, 20 h
[5] = 90% growth inhibition, RPMI 1640 + 2% glucose, 37 °C, 20 h

KCLTLRSLKKTLKFCASGRT-NH2 [X1-20a, novel amidated frog AMP derivative, Xenopus laevis]
Modal MIC (E. coli LEC001; [3]): > 128 µg/mL | Modal MIC (E. coli LEC001; shown in µM): > 55 µM | Modal MIC (E. coli NCTC 12923; MHB, ~5×10^5 CFU/mL, 37 °C, 20 h, OD600, min. three biological repeats): 8 µg/mL | Modal MIC (E. coli NCTC 12923; shown in µM): 3.4 µM | Modal MIC (P. aeruginosa NCTC 13437; [3]): > 128 µg/mL | Modal MIC (P. aeruginosa NCTC 13437; shown in µM): > 55 µM | Modal MIC (A. baumannii ATCC 17978; [3]): 16 µg/mL | Modal MIC (A. baumannii ATCC 17978; shown in µM): 6.9 µM | Modal MIC (A. baumannii AYE; [3]): 16 µg/mL | Modal MIC (A. baumannii AYE; shown in µM): 6.9 µM | Modal MIC (K. pneumoniae M6; [3]): 32 µg/mL | Modal MIC (K. pneumoniae M6; shown in µM): 13.8 µM | Modal MIC (K. pneumoniae NCTC 13368; [3]): 64 µg/mL | Modal MIC (K. pneumoniae NCTC 13368; shown in µM): 27.5 µM | Modal MIC (S. aureus (MRSA) 1199B): > 55 µM | Modal MIC [1, 3]: > 128 µg/mL | Modal MIC ([1]; shown in µM): > 55 µM | Modal MIC (S. aureus (MRSA) USA300; [3]): > 128 µg/mL | Modal MIC (S. aureus (MRSA) USA300; shown in µM): > 55 µM | Modal MIC50 (C. auris TDG 1912): > 55 µM | Modal MIC90 (C. auris TDG 1912): > 55 µM | Modal MIC50 (C. albicans NCPF 3281; [4]): > 128 µg/mL | Modal MIC90 (C. albicans NCPF 3281; [5]): > 128 µg/mL | Modal MIC50 (C. albicans NCPF 3281; shown in µM): > 55 µM | Modal MIC90 (C. albicans NCPF 3281; shown in µM): > 55 µM | Modal MIC50 (C. glabrata NCPF 8018; [4]): > 128 µg/mL | Modal MIC90 (C. glabrata NCPF 8018; [5]): > 128 µg/mL | Modal MIC50 (C. glabrata NCPF 8018; shown in µM): > 55 µM | Modal MIC90 (C. glabrata NCPF 8018; shown in µM): > 55 µM | Modal MIC50 (C. krusei NCPF 3876; [4]): 64 µg/mL | Modal MIC90 (C. krusei NCPF 3876; [5]): 64 µg/mL | Modal MIC50 (C. krusei NCPF 3876; shown in µM): 27.5 µM | Modal MIC90 (C. krusei NCPF 3876; shown in µM): 27.5 µM | Modal MIC50 [2, 4]: > 128 µg/mL | Modal MIC90 [2, 5]: > 128 µg/mL | Modal MIC50 ([2]; shown in µM): > 55 µM | Modal MIC90 ([2]; shown in µM): > 55 µM | Modal MIC50 (C. tropicalis NCPF 8760; [4]): 16 µg/mL | Modal MIC90 (C. tropicalis NCPF 8760; [5]): 32 µg/mL | Modal MIC50 (C. tropicalis NCPF 8760; shown in µM): 6.9 µM | Modal MIC90 (C. tropicalis NCPF 8760; shown in µM): 13.8 µM
